Patent US20050020576A1, “Kappa agonist compounds and pharmaceutical formulations thereof” (priority 1996, published 2005)
Structures can show the parent of a compound that is named as a salt. Where two headings read alike, the source gives them in different places.

Target: cloned human kappa receptor (Homo sapiens, UniProt P41145)
Assay: biochemical
Type: binding
Set-up: (3H)-Diprenorphin, % / k [3H] Diprenorphin, %: dose or concentration left out as unconfirmed

Chain of cloned human kappa receptor (P41145 whole entry): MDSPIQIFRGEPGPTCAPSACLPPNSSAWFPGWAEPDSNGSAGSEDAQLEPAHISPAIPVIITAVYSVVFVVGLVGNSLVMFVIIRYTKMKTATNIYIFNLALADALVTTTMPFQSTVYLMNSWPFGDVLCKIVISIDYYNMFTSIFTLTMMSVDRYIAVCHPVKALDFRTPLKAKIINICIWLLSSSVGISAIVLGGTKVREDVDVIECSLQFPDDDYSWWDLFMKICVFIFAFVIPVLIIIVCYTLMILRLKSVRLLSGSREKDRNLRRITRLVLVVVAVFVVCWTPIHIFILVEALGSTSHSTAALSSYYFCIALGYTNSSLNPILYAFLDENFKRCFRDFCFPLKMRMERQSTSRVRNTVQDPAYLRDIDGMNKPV

For `COC(=O)N1CCN(C(=O)Cc2ccc(C(F)(F)F)cc2)C(CN2CC[C@H](OC(=O)Cc3ccc(C(F)(F)F)cc3)C2)C1` (mixture of isomers) [Example 1j, Methyl-4-[(4-a,a,a-trifluoromethylphenyl)acetyl]-3-(R,S)-[3-(S)-(4′-α,α,α-trifluoro methylphenylacetate)-1-(pyrrolidinyl)methyl]-1-piperazinecarboxylate hydrochloride], the Ki (Ki, nM 3H-Diprenorphin) was 13 nM.
For `COC(=O)N1CCN(C(=O)Cc2ccc(C(F)(F)F)cc2N)C(CN2CCC[C@H]2CO)C1` (mixture of isomers) [Example 1p, Methyl-4-[(2-amino-4-α,α,α-trifluoromethylphenyl)acetyl]-3-(R,S)-[(2-(S)-pyrrolidinemethanol)methyl]-1-piperazinecarboxylate hydrochloride], the Ki (Ki, nM 3H-Diprenorphin) was 11 nM.
`CC(=O)N1CCN(C(=O)Cc2ccc(S(C)(=O)=O)cc2)C(CN2CC[C@H](OC(=O)Cc3ccc(S(C)(=O)=O)cc3)C2)C1` (mixture of isomers) [Example 1u, 4-Acetyl-1-[(4-methylsulfonyl]phenyl)acetyl]-2-(R,S)-[3-(S)-(4′-methylsulfonylphenyl acetate)-1-(Pyrrolidinyl)methyl]piperazine hydrochloride] showed a Ki (Table IA, read-out: Ki(nM) (3H)-Diprenorphin) of 1780 nM.
`COC(=O)N1CCN(C(=O)Cc2ccc(C(F)(F)F)cc2N(S(C)(=O)=O)S(C)(=O)=O)C(CN2CCCC2)C1` (racemic) [Example 1b, Methyl-4-[(2-[N,N-bis-methylsulfonamido]-4-trifluoromethyphenyl)acetyl]-3-(R,S)-[(1-pyrrolidinyl)-methyl]-1-piperazinecarboxylate dihydrochloride] gave a Ki (Ki, nM 3H-Diprenorphin) of 7 nM.
Work on `CNS(=O)(=O)c1ccc(CC(=O)N2CCN(C(=O)OC)CC2CN2CCCC2)cc1` (racemic) [Example 1f, Methyl-4-[-4-[N-methylamino)sulfamyl]phenyl)acetyl]-3-(R,S)-[(1-pyrrolidinyl)methyl]-1-piperazinecarboxylate hydrochloride] yielded a Ki (Ki, nM 3H-Diprenorphin) of 53.5 nM.
In the case of `CC(=O)N1CCN(C(=O)Cc2ccccn2)C(CN2CCCC2)C1.Cl` (racemic) [Example 1gg, 4-Acetyl-1-[(2-pyridyl)acetyl]-2-(R,S)-[(1-pyrrolidinyl)methyl]piperazine hydrochloride], the “(3H)-Diprenorphin, %” value is reported as 27% @ 1 mM.
In the case of `Cl.O=CN1CCN(C(=O)Cc2ccccn2)C(CN2CCCC2)C1` (racemic) [Example 1hh, 4-Formyl-1-[(2-pyridyl)acetyl]-2-(R,S)-[(1-pyrrolidinyl)methyl]piperazine hydrochloride], the “(3H)-Diprenorphin, %” value is reported as 0% @ 1 mM.
In the case of `COc1cccc(C(CN2CCCC2)N(C)C(=O)Cc2ccccc2NS(C)(=O)=O)c1` (racemic) [Example 3uu, (R,S)-1-[2-(Methanesulfonylamino)phenyl-N-methylacetamido]-1-(3-methoxyphenyl)-2-(1-pyrrolidino)-ethane, methanesulfonic acid salt], the Ki (Ki (nM) [3H]-Diprenorphin κ) is reported as 17.5 nM.
Work on `CN(C(=O)Cc1ccccc1NS(C)(=O)=O)C(CN1CCCC1)c1cccc(O)c1` (racemic) [Example 3vv, (R,S)-1-[2-(Methanesulfonylamino)phenyl-N-methylacetamido]-1-(3-hydroxyphenyl)-2-(1-pyrrolidino)-ethane, methanesulfonic acid salt] yielded a Ki (Ki (nM) [3H]-Diprenorphin κ) of 19.5 nM.
With `CN(C(=O)Cc1ccc(C(F)(F)F)cc1NC(=O)/C=C\C(=O)O)C1CCCCC1N1CCCC1` (racemic) [Example 4b, (Z)-4-[2-((±)-trans-2-Amino-4-trifluoromethyl-N-methyl-N-[2-(1-pyrrolidinyl)-cyclohexyl]-phenylaetamido)]4-oxo-2-butenoic acid] the “[3H]-Diprenorphin, % @ 1 μM” value was 22% @ 1 μM.
In the case of `CS(=O)(=O)N1CCN(C(=O)Cc2ccc(C(F)(F)F)cc2)C(CN2CC[C@H](OC(=O)Cc3ccc(C(F)(F)F)cc3)C2)C1` (stereo partly drawn) [Example 1mm, 4-Methylsulphonyl-1-[(4-α,α,α-triflouromethylphenyl)acetyl]-2-(R,S)-[3-(S)-(4′-α,α,α-triflouromethylphenyl acetate)-1-(pyrrolidinyl)methyl]piperazine hydrochloride], the Ki (Ki, nM 3H-Diprenorphin) is reported as 287 nM.
Compound `CN(C(=O)Cc1ccccc1NC(=O)/C=C\C(=O)O)[C@H](CN1CCCC1)c1ccccc1` [Example 3aa, (Z)-4-[2-(2-Aminophenyl)-N-methyl-N-[(1S)-1-phenyl)-2-(1-pyrrolidinyl]-ethyl]acetamido]4-oxo-2-butenoic acid hemimaleate] has a Ki (read-out: Ki (nM) [3H]-Diprenorphin κ) of 5280 nM.
`CN(C(=O)Cc1ccc(C(F)(F)F)cc1NCC(=O)O)[C@H](CN1CCCC1)c1ccccc1` [Example 3b, N-[(4-Trifluoromethylphenyl)-N-methyl-N-{[1S]-1-phenyl-2-[1-pyrrolidinyl)]ethyl}acetamido]glycine hydrochloride] showed a Ki (Table IIIA, read-out: Ki (nM) [3H]-Diprenorphin κ) of 464 nM.
With `CN(C(=O)Cc1ccccc1NS(C)(=O)=O)[C@H](CN1CCCC1)c1cccc(NS(C)(=O)=O)c1` [Example 3pp, 2-(2-Methanesulfonamidophenyl)-N-methyl-N-[(1S)-1-(3-methanesulfon-amidophenyl)-2-(1-pyrrolidinyl)ethyl]acetamide Hydrochloride] the Ki (Ki (nM) [3H]-Diprenorphin κ) was 4.6 nM.
In the case of `CC(C)C(=O)Nc1cccc([C@@H](CN2CCCC2)N(C)C(=O)Cc2ccccc2NC(=O)C(C)C)c1` [Example 3qq, 2-(2-Iso-butyramidophenyl)-N-methyl-N-[(1S)-1-(3-isobutyramido-phenyl)-2-(1-pyrrolidinyl)ethyl]acetamide Methanesulfonic acid salt], the Ki (Ki (nM) [3H]-Diprenorphin κ) is reported as 21 nM.
In the case of `COc1cc(CC(=O)N(C)[C@H](CN2CCCC2)c2ccccc2)c(S(=O)(=O)N(C)Cc2ccccc2)cc1OC` [Example 3xx, 2-(2-N-Benzyl-2-N-methylsulfamoyl-3,4-dimethoxyphenyl)-N-methyl-N-[(1S)-1-phenyl-2-(1-pyrrolidinyl)ethyl]acetamide hydrochloride], the Ki (Ki (nM) [3H]-Diprenorphin κ) is reported as 0.83 nM.
With `CCOC(=O)/C=C/C(=O)Nc1cc(Cl)c(Cl)cc1CC(=O)N(C)[C@H](CN1CCCC1)c1ccccc1` [Example 3y, (E) Ethyl 4-[2-(2-amino-4,5-dichlorophenyl)-N-methyl-N-[(1S)-1-phenyl)-2-[1-pyrrolidinyl]ethyl]acetamido]4-oxo-2-butenoate hydrochloride] the Ki (Ki (nM) [3H]-Diprenorphin κ) was 0.35 nM.
For `CN(C(=O)Cc1cc2c(cc1S(=O)(=O)N(C)Cc1ccccc1)OCO2)[C@H](CN1CCCC1)c1ccccc1` [Example 131, 2-[2-(N-Benzyl-N-methylsulfamoyl)-4,5-methylenedioxyphenyl]-N-methyl-N-[(1S)-1-phenyl-2-[(1-pyrrolidinyl)ethyl]]acetamide], the Ki (Ki (nM) [3H]-Diprenorphin κ) was 0.22 nM.
`COc1cc(CC(=O)N(C)[C@H](CN2CC[C@H](O)C2)c2ccccc2)c(S(=O)(=O)N2CCCC2)cc1OC` [Example 135, 2-[2-(N-Pyrrolidinesulfamoyl)-4,5-dimethoxyphenyl]-N-methyl-N-[(1S)-1-phenyl-2-[1-(3S)-(3-hydroxypyrrolidinyl)ethyl]]acetamide] gave a Ki (Ki (nM) [3H]-Diprenorphin κ) of 0.66 nM.
`COc1cc(CC(=O)N(C)[C@H](CN2CC[C@H](O)C2)c2ccccc2)c(S(=O)(=O)N(C)C)cc1OC` [Example 137, 2-[2-(N-Dimethylsulfamoyl)-4,5-dimethoxyphenyl]-N-methyl-N-[(1S)-1-phenyl-2-[1-(3S)-(3-hydroxypyrrolidinyl)ethyl]]acetamide] was tested, and the Ki (read-out: Ki(nM) [3H]-Diprenorphin κ) was 0.83 nM.
Work on `COc1cc(CC(=O)N(C)[C@H](CN2CC[C@H](O)C2)c2ccccc2)c(S(=O)(=O)N2CCN(C)CC2)cc1OC` [Example 139] yielded a Ki (Ki (nM) [3H]-Diprenorphin κ) of 4.2 nM.
In the case of `COc1cc(CC(=O)N(C)[C@H](CN2CCCC2)c2ccccc2)c(S(=O)(=O)N2CCOCC2)cc1OC` [Example 140, 2-[2-N-(Morpholinesulfamoyl)-4,5-dimethoxyphenyl]-N-methyl-N-[(1S)-1-phenyl-2-[1-(pyrrolidinyl)ethyl]]acetamide], the Ki (Ki (nM) [3H]-Diprenorphin κ) is reported as 0.56 nM.
